The source of these data is patent publication US4431815A, “1-[3-(2,4-Dichlorophenyl)propyl]imidazole and salts thereof” (Burroughs Wellcome Co., priority 1983, dated 1984).

Molecules are shown by their SMILES. pIC50: −log10 of the molar value. Like-named read-outs stand apart in the source and are kept apart here.

One experiment deals with T1, TXA2 synthetase (Equus caballus, UniProt A0A9L0T8T9).
T1 construct: labelled arachidonic acid substrate, thromboxane B2 measured by TLC
T1 sequence (A0A9L0T8T9 2-534): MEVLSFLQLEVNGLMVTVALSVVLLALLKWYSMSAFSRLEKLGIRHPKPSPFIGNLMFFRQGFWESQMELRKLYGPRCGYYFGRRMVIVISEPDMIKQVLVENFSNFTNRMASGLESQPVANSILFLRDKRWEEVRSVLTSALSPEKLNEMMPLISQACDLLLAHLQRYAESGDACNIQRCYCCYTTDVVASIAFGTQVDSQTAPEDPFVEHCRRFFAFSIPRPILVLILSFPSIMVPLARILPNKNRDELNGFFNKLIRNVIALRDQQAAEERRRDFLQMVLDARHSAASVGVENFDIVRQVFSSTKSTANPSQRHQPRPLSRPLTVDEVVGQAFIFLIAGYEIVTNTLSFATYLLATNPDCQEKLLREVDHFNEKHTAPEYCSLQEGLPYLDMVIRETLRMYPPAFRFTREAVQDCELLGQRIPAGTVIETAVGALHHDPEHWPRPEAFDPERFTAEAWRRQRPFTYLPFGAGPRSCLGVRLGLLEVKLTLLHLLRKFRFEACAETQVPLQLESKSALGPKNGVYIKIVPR
The experiment can be described thus: Inhibition of thromboxane (TXA2) synthetase in homogenised horse platelets, labelled arachidonic acid, thromboxane B2 measured by TLC. In kind it is biochemical. Conditions: horse platelet homogenate, pH 7.4; for IC50: read-out: ED50 (concentration of active compound to reduce the enzyme activity by 50%) (converted). The procedure: (§1) Horse platelets were prepared from whole horse blood by differential centrifugation. Approximately 10^6 platelets were homogenised in 1 ml 100 mM Tris buffer pH 7.4. Various concentrations of active compound were added and the reaction sets incubated for 5 minutes at ambient temperature. To each tube was added 20 nM of arachidonic acid containing 10^6 DPM of labelled arachidonic acid and the tubes incubated for 3 minutes at 37° C. in a shaking water bath. After incubation the radioactive products were extracted from the acidified aqueous phase with ethyl acetate and after concentration resolved by thin layer chromatography on silica gel with chloroform/methanol/acetic acid/water (90:8:1:0.8) as a developing solvent. The amount of thromboxane produced was measured by scraping off the radioactive zone corresponding to thromboxane B2 and estimating the radioactivity in a liquid scintillation counter.
The concentration of active compound to reduce the enzyme activity by 50% (ED50) was established.
By the method of Biological results Example 7 above the ED50 and selectivity values were obtained for the compounds set out in Table B.

The subject of another experiment is PGE, PGF and PGD. Briefly: Selectivity: amount of PGE, PGF and PGD produced (anti-aggregating prostaglandins), horse platelets. Conditions: horse platelet homogenate. Format: biochemical. The procedure:
as §1, with “Various concentrations of active compound were added and the reaction sets incubated for 5 minutes at ambient temperature.” left out
The greater the selectivity, the more of the anti-aggregating prostaglandins are produced.
The ED50 and Selectivity results are shown in Table A in which 0 indicates no selectivity; + low selectivity: ++ medium selectivity; +++ high selectivity, and ++++ exceptionally high selectivity.

A further experiment relates to platelet aggregation. The experiment can be described thus: Inhibition of platelet aggregation in vivo.
The test system of another experiment is platelet clumps. The experiment can be described thus: Disaggregation of platelet clumps.
Experiment [1] relates to enzymic conversion of the endoperoxides (PGG2 and PGH2) to thromboxane A2 by platelet microsomes. Conditions: Moncada et al., Prostaglandins 1977; cited from earlier work.

With `Cc1cccc(-n2ccnc2)c1C` [1-(2,3-dimethylphenyl)imidazole], the IC50 at TXA2 synthetase (Table B) is around 17.4 µM. Further, the SELECTIVITY entry in the experiment on PGE, PGF and PGD (Table B) is on record as “++”. With `Cc1cc(C)c(Cn2ccnc2)c(C)c1` [1-(2,4,6-Trimethylbenzyl)imidazole, 1-(2,4,6-trimethylbenzyl)imidazole], the “inhibiting platelet aggregation in vivo” value in the experiment with platelet aggregation is given as “capable of inhibiting platelet aggregation in vivo”. Moreover, in the experiment on platelet clumps, the disaggregating platelet clumps entry is reported as “capable of disaggregating platelet clumps”. In the experiment with PGE, PGF and PGD (Table A), the SELECTIVITY entry is listed as “++”. `Clc1ccc(Cn2ccnc2)c(Cl)c1` [1-(2,4-dichlorobenzyl)imidazole, 1-(2,4-Dichlorobenzyl)imidazole]: the “inhibiting platelet aggregation in vivo” value in the experiment on platelet aggregation is listed as “capable of inhibiting platelet aggregation in vivo”. The IC50 on TXA2 synthetase (Table B) was 8.81 to 35.2 µM. In the experiment with platelet clumps, the disaggregating platelet clumps entry is “capable of disaggregating platelet clumps”. With `Clc1ccccc1Cn1ccnc1` [1-(2-chlorobenzyl)imidazole], at TXA2 synthetase (Table B), the IC50 is 2.6 µM. In addition, in the experiment with PGE, PGF and PGD (Table B), the SELECTIVITY entry is recorded as “++”. For `c1ccc(CCn2ccnc2)cc1` [1-(2-phenylethyl)imidazole, 1-(2-Phenylethyl)imidazole], in that order: 116 µM and “+”. Turning to `CC(Cn1ccnc1)c1ccccc1` (stereo not drawn) [1-(2-phenylpropyl)imidazole, 1-(2-Phenylpropyl)imidazole], the IC50 at TXA2 synthetase (Table B) was below 26.8 µM.

In the case of `Cc1ccc(Cn2ccnc2)cc1C` [1-(3,4-Dimethylbenzyl)imidazole], in the experiment with PGE, PGF and PGD (Table A), the SELECTIVITY result is “++”.

As for `Nc1cccc(Cn2ccnc2)c1` [1-(3-aminobenzyl)imidazole, 1-(3-Aminobenzyl)imidazole], the IC50 on TXA2 synthetase (Table B) is around 57.7 µM. The SELECTIVITY entry in the experiment on PGE, PGF and PGD (Table B) is “++”. In the same order, the values of `Brc1cccc(Cn2ccnc2)c1` [1-(3-bromobenzyl)imidazole, 1-(3-Bromobenzyl)imidazole] are 61.2 µM and “+++”. On to `O=[N+]([O-])c1cccc(Cn2ccnc2)c1` [1-(3-nitrobenzyl)imidazole, 1-(3-Nitrobenzyl)imidazole], for which the IC50 on TXA2 synthetase (Table B) was 271 µM. Still for that read-out and setting: with `C(=Cc1ccccc1)Cn1ccnc1` [1-(3-phenylprop-2-enyl)imidazole, 1-(3-Phenylprop-2-enyl)imidazole] the figure was 92.3 µM. Take `c1ccc(CCCn2ccnc2)cc1` [1-(3-phenylpropyl)imidazole, 1-(3-Phenylpropyl)imidazole]: the IC50 at TXA2 synthetase (Table B) was 134 µM. Moreover, the SELECTIVITY result in the experiment on PGE, PGF and PGD (Table B) is “+”. Consider `Brc1ccc(Cn2ccnc2)cc1` [1-(4-bromobenzyl)imidazole, 1-(4-Bromobenzyl)imidazole], for which, at TXA2 synthetase (Table B), the IC50 is 19.4 µM.

Consider `Fc1ccc(Cn2ccnc2)cc1` [1-(4-fluorobenzyl)imidazole, 1-(4-Fluorobenzyl)imidazole], for which the IC50 at TXA2 synthetase (Table B) was 159 µM. Take `CC(C)c1ccc(Cn2ccnc2)cc1` [1-(4-i-propylbenzyl)imidazole, 1-(4-i-Propylbenzyl)imidazole]: the IC50 at TXA2 synthetase (Table B) was 0.499 µM. Also, the SELECTIVITY in the experiment with PGE, PGF and PGD (Table B) was 0. For `Cc1ccc(Cn2ccnc2)cc1` [1-(4-methylbenzyl)imidazole, 1-(4-Methylbenzyl)imidazole], in that order: 174 µM and “+”.

With `Clc1ccc(C=CCn2ccnc2)c(Cl)c1` [1-[3-(2,4-Dichlorophenyl)prop-2-enyl]imidazole], the SELECTIVITY result in the experiment on PGE, PGF and PGD (Table A) is reported as “+”. Consider `Clc1ccc(CCCn2ccnc2)c(Cl)c1` [1-[3-(2,4-Dichlorophenyl)propyl]imidazole], for which, in the experiment with platelet aggregation, the “inhibiting platelet aggregation in vivo” value is “capable of inhibiting platelet aggregation in vivo”. The IC50 is 1.96 µM at TXA2 synthetase (Table A) and 2.35 µM at TXA2 synthetase (Table B). The disaggregating platelet clumps entry in the experiment with platelet clumps is “capable of disaggregating platelet clumps”. In addition, the SELECTIVITY result in the experiment on PGE, PGF and PGD (Table A) is “++”; with PGE, PGF and PGD (Table B), “++”. On to `Clc1cccc(Cl)c1C=CCn1ccnc1` [1-[3-(2,6-Dichlorophenyl)prop-2-enyl]imidazole], for which, in the experiment on PGE, PGF and PGD (Table A), the SELECTIVITY result was “+”.

Take `c1ccc(Cn2ccnc2)cc1` [1-benzylimidazole, 1-Benzylimidazole]: the “inhibiting platelet aggregation in vivo” value in the experiment on platelet aggregation was “capable of inhibiting platelet aggregation in vivo”. Besides, on TXA2 synthetase (read-out: ED50 (concentration of active compound to reduce the enzyme activity by 50%), Table B), the pIC50 is 4.50. For the same compound, the disaggregating platelet clumps entry in the experiment with platelet clumps was “capable of disaggregating platelet clumps”. For the same compound, the SELECTIVITY entry in the experiment on PGE, PGF and PGD (Table B) is on record as “+++”. As to `Cn1ccnc1` [1-methylimidazole], the “inhibition of the enzymic conversion of endoperoxides to thromboxane A2” value in experiment [1] is reported as “some degree of inhibition”. In the case of `c1c[nH]cn1` [Imidazole], the “inhibition of the enzymic conversion of endoperoxides to thromboxane A2” value in experiment [1] is on record as “some degree of inhibition”.
